Laboratory results taken from the supplement of paper PMC10307832.

Key:
Test in all cases: relative viability (nuclei count vs DMSO), 5 days (fraction); higher = more cells survive
[1] = test system: NCI-H23
Method in brief: (§1)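 Relative viability is defined as nuclei in treated wells over nuclei in vehicle wells. Duplicate plates were run and medians reported. Lung cancer cell lines in 1536-well plates were dosed by pin tool one day after seeding, with one drug or with a fixed anchor-drug dose plus five library-drug doses (not always all listed) in √10 steps, and nuclei were counted after 5 days.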

[2] = test system: HARA
Method in brief: as §1

[3] = test system: 201T
Method in brief: as §1

[4] = test system: NCI-H358
Method in brief: as §1

[5] = test system: HCC-827
Method in brief: as §1

[6] = test system: SK-MES-1
Method in brief: as §1

[7] = test system: NCI-H596
Method in brief: as §1

[8] = test system: SW 900
Method in brief: as §1

[9] = test system: NCI-H1437
Method in brief: as §1

[10] = test system: NCI-H441
Method in brief: as §1

[11] = test system: NCI-H1975
Method in brief: as §1

[12] = test system: COR-L 105
Method in brief: as §1

[13] = test system: COR-L23
Method in brief: as §1

[14] = test system: HCC-15
Method in brief: as §1

[15] = test system: NCI-H1666
Method in brief: as §1

[16] = test system: NCI-H838
Method in brief: as §1

[17] = test system: LK-2
Method in brief: as §1

[18] = test system: NCI-H650
Method in brief: as §1

[19] = test system: A-427
Method in brief: as §1

[20] = test system: EKVX
Method in brief: as §1

[21] = test system: BEN
Method in brief: as §1

O=C(O)c1ccc(-c2c[nH]c3ncc(-c4ccccc4)cc23)cc1C1CCCC1 + COc1cc2c(Oc3ccc(NC(=O)C4(C(=O)Nc5ccc(F)cc5)CC4)cc3F)ccnc2cc1OCCCN1CCOCC1 [Foretinib] (partner 0.25 µM)
relative viability ([1]; first compound 0.04 µM): 1.1
relative viability ([1]; first compound 0.1265 µM): 1
relative viability ([1]; first compound 0.4 µM): 0.939
relative viability ([1]; first compound 1.265 µM): 0.616
relative viability ([2]; first compound 0.04 µM): 0.836
relative viability ([2]; first compound 0.1265 µM): 0.952
relative viability ([2]; first compound 0.4 µM): 0.811
relative viability ([2]; first compound 1.265 µM): 0.796
relative viability ([3]; first compound 0.04 µM): 1.29
relative viability ([3]; first compound 0.1265 µM): 1.25
relative viability ([3]; first compound 0.4 µM): 1.11
relative viability ([3]; first compound 1.265 µM): 0.958
relative viability ([4]; first compound 0.04 µM): 0.768
relative viability ([4]; first compound 0.1265 µM): 0.949
relative viability ([4]; first compound 0.4 µM): 0.619
relative viability ([4]; first compound 1.265 µM): 0.397
relative viability ([5]; first compound 0.04 µM): 0.914
relative viability ([5]; first compound 0.1265 µM): 1.08
relative viability ([5]; first compound 0.4 µM): 0.957
relative viability ([5]; first compound 1.265 µM): 0.543
relative viability ([6]; first compound 0.04 µM): 0.963
relative viability ([6]; first compound 0.1265 µM): 1.01
relative viability ([6]; first compound 0.4 µM): 0.918
relative viability ([6]; first compound 1.265 µM): 0.794
relative viability ([7]; first compound 0.04 µM): 0.783
relative viability ([7]; first compound 0.1265 µM): 0.79
relative viability ([7]; first compound 0.4 µM): 0.919
relative viability ([7]; first compound 1.265 µM): 0.999
relative viability ([8]; first compound 0.04 µM): 0.921
relative viability ([8]; first compound 0.1265 µM): 0.839
relative viability ([8]; first compound 0.4 µM): 0.896
relative viability ([8]; first compound 1.265 µM): 0.824
relative viability ([9]; first compound 0.04 µM): 1.25
relative viability ([9]; first compound 0.1265 µM): 1.19
relative viability ([9]; first compound 0.4 µM): 1.11
relative viability ([9]; first compound 1.265 µM): 0.923
relative viability ([10]; first compound 0.04 µM): 1.14
relative viability ([10]; first compound 0.1265 µM): 0.881
relative viability ([10]; first compound 0.4 µM): 0.897
relative viability ([10]; first compound 1.265 µM): 0.563
relative viability ([11]; first compound 0.04 µM): 0.964
relative viability ([11]; first compound 0.1265 µM): 0.941
relative viability ([11]; first compound 0.4 µM): 0.985
relative viability ([11]; first compound 1.265 µM): 0.883
relative viability ([12]; first compound 0.04 µM): 1.1
relative viability ([12]; first compound 0.1265 µM): 1.43
relative viability ([12]; first compound 0.4 µM): 0.886
relative viability ([12]; first compound 1.265 µM): 1.22
relative viability ([13]; first compound 0.04 µM): 1.02
relative viability ([13]; first compound 0.1265 µM): 1.19
relative viability ([13]; first compound 0.4 µM): 0.943
relative viability ([13]; first compound 1.265 µM): 0.636
relative viability ([14]; first compound 0.04 µM): 1.11
relative viability ([14]; first compound 0.1265 µM): 1.04
relative viability ([14]; first compound 0.4 µM): 0.92
relative viability ([14]; first compound 1.265 µM): 0.678
relative viability ([15]; first compound 0.04 µM): 0.961
relative viability ([15]; first compound 0.1265 µM): 0.959
relative viability ([15]; first compound 0.4 µM): 0.921
relative viability ([15]; first compound 1.265 µM): 0.441
relative viability ([16]; first compound 0.04 µM): 1.02
relative viability ([16]; first compound 0.1265 µM): 1.17
relative viability ([16]; first compound 0.4 µM): 1.05
relative viability ([16]; first compound 1.265 µM): 0.923
relative viability ([17]; first compound 0.04 µM): 1.33
relative viability ([17]; first compound 0.1265 µM): 1.14
relative viability ([17]; first compound 0.4 µM): 1.13
relative viability ([17]; first compound 1.265 µM): 0.969
relative viability ([18]; first compound 0.04 µM): 1.13
relative viability ([18]; first compound 0.1265 µM): 1.11
relative viability ([18]; first compound 0.4 µM): 0.888
relative viability ([18]; first compound 1.265 µM): 0.71
relative viability ([19]; first compound 0.04 µM): 0.994
relative viability ([19]; first compound 0.1265 µM): 1.12
relative viability ([19]; first compound 0.4 µM): 1.01
relative viability ([19]; first compound 1.265 µM): 0.786
relative viability ([20]; first compound 0.04 µM): 0.826
relative viability ([20]; first compound 0.1265 µM): 0.79
relative viability ([20]; first compound 0.4 µM): 0.868
relative viability ([20]; first compound 1.265 µM): 0.712
relative viability ([21]; first compound 0.04 µM): 0.586
relative viability ([21]; first compound 0.1265 µM): 0.854
relative viability ([21]; first compound 0.4 µM): 0.937
relative viability ([21]; first compound 1.265 µM): 0.765
